{"source": "paper PMC3050433", "about": "“The effects of maribavir on the autophosphorylation of ganciclovir resistant mutants of the cytomegalovirus UL97 protein” (Herpesviridae, 2010)", "key": {"[1]": {"test_system": "HCMV strains resistant to ganciclovir, foscarnet and cidofovir", "design": "method as in PMID 16962820", "settings": "cited from earlier work"}, "[2]": {"molecular_target": "T1, UL97 D456A (Human cytomegalovirus, UniProt Q68101, D456A)", "T1 construct": "PCR reaction to generate the full length UL97; honey bee melittin secretion signal (N); made in house; host or cells: Sf21 insect cells, recombinant baculovirus (pMelBac C)", "T1 sequence (Q68101 1-707 D456A)": "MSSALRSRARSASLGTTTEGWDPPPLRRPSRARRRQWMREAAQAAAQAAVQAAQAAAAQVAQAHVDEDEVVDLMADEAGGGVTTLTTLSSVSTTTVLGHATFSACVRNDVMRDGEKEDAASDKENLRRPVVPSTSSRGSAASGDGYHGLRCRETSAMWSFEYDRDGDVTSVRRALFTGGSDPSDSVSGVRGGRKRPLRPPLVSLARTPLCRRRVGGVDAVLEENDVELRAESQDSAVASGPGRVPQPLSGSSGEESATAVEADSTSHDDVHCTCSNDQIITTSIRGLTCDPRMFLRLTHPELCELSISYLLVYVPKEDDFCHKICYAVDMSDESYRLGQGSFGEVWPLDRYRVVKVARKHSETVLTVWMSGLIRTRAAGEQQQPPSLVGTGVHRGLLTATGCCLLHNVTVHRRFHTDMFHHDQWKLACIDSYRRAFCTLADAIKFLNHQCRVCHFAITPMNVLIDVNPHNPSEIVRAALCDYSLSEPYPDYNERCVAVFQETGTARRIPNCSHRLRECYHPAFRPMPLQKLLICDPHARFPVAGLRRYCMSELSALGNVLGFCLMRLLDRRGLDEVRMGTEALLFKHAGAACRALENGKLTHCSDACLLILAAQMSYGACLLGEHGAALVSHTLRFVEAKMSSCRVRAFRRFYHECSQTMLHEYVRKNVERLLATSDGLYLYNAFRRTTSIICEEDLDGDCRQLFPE", "test": "UL97 autophosphorylation protein kinase assay, D456A", "format": "biochemical", "settings": "D456A mutant", "protocol": "(§1) Analysis of the autophosphorylation of wild type and mutant UL97 protein species was performed by a standard protein kinase assay as previously described (46). Briefly, purified protein was added to 2× protein kinase buffer (100 mM Tris HCl, pH9.0, 20 mM MgCl2, 10 μM ATP, 4 mM DTT, 2 M NaCl) and 370 KBq [γ^32P] ATP (Amersham), made up to 20 μl with SDW and incubated at 37°C. The reactions were terminated by the addition of 2× SDS sample buffer followed by boiling for 3 minutes. The amount of radiolabelled phosphate incorporated by autophosphorylation was analysed by SDS-PAGE and measured using the Biorad Mulitanalyst. The protein kinase assays were initially performed for 2 to 60 minutes to determine the maximum rate of phosphate incorporation, all assays were then performed at the maximum rate which equated to 5 minutes.\n(§2) Enzyme kinetic analysis was performed on the purified wild type and mutant UL97 protein species as above using increasing concentrations of ATP (2 μM to 20 μM). The amount of incorporated radiolabelled phosphate was plotted against the concentration of ATP in a Lineweaver Burke plot to determine the Km for ATP for each UL97 species. […]"}, "[3]": {"test_system": "wild type and mutant UL97 proteins", "test": "UL97 autophosphorylation protein kinase assay, all UL97 species pooled", "format": "biochemical, human cytomegalovirus", "settings": "maribavir 0.5 μM; every form of UL97 investigated (mutant and wild type)", "protocol": "as §1, §2"}, "[4]": {"test_system": "HCMV", "design": "method as in PMID 12121906", "settings": "HCMV replication in vitro; cited from earlier work"}}, "data": [{"smiles": "CC(C)Nc1nc2cc(Cl)c(Cl)cc2n1[C@H]1O[C@@H](CO)[C@H](O)[C@@H]1O", "note": "[maribavir, 5,6-dichloro-2-(isopropylamino)-1-beta-L-ribofuranosyl-1H-benzimidazole]", "values": [{"measurement": "activity against resistant strains", "setting": "[1]", "value": "active"}, {"measurement": "IC50", "setting": "[2]", "value": 34, "unit": "nM"}, {"measurement": "autophosphorylation as % of total phosphorylation of the wild type UL97 protein", "setting": "[3]", "value": "below 10%"}, {"measurement": "IC50 fold lower than that observed for GCV", "setting": "[4]", "value": "4-to 10 fold"}]}]}
